Columns and labels:
[1] = system: barnyardgrass (Ec); test: Test Example 1: herbicidal effects by paddy field soil treatment; assay type: in vivo; details: 100 g of the active ingredient per 10 ares, 21st day after the application, index 0-5 of Table 47;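 also: grade of growth control; 5 = at least 90%; 4 = 70 to 90%; 3 = 50 to 70%; 2 = 30 to 50%; 1 = 10 to 30%; 0 = under 10%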
Method in brief: (§1)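 Scoring of herbicidal effect came 21 days after application of 100 g active ingredient per 10 ares to flooded (3 cm) paddy-soil pots sown with barnyardgrass, monochoria and bulrush, kept in a greenhouse.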

[2] = system: bulrush (Sc); test: as above; assay type: in vivo; details: 100 g of the active ingredient per 10 ares, 21st day after the application, index 0-5 of Table 47;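 also: grade of growth control; 5 = at least 90%; 4 = 70 to 90%; 3 = 50 to 70%; 2 = 30 to 50%; 1 = 10 to 30%; 0 = under 10%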
Method in brief: as §1

[3] = system: monochoria (Mo); test: as above; assay type: in vivo; details: 100 g of the active ingredient per 10 ares, 21st day after the application, index 0-5 of Table 47;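 also: grade of growth control; 5 = at least 90%; 4 = 70 to 90%; 3 = 50 to 70%; 2 = 30 to 50%; 1 = 10 to 30%; 0 = under 10%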
Method in brief: as §1

[4] = system: Digitaria ciliaris (Di); test: Test Example 2: herbicidal effects by upland field soil treatment; assay type: in vivo; details: 100 g of the active ingredient per 10 ares, evaluated on the 21st day after application;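 also: grade of growth control; 5 = at least 90%; 4 = 70 to 90%; 3 = 50 to 70%; 2 = 30 to 50%; 1 = 10 to 30%; 0 = under 10%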
Description: (§2) (Test on Herbicidal Effects by Upland Field Soil Treatment)

[5] = system: barnyardgrass (Ec); test: as above; assay type: in vivo; details: 100 g of the active ingredient per 10 ares, evaluated on the 21st day after application
Description: as §2

[6] = system: common lambsquarters (Ch); test: as above; assay type: in vivo; details: 100 g of the active ingredient per 10 ares, evaluated on the 21st day after application
Description: as §2

[7] = system: pale smartweed (Po); test: as above; assay type: in vivo; details: 100 g of the active ingredient per 10 ares, evaluated on the 21st day after application
Description: as §2

[8] = system: rice flatsedge (Ci); test: as above; assay type: in vivo; details: 100 g of the active ingredient per 10 ares, evaluated on the 21st day after application
Description: as §2

[9] = system: slender amaranth (Am); test: as above; assay type: in vivo; details: 100 g of the active ingredient per 10 ares, evaluated on the 21st day after application
Description: as §2

[10] = system: Diaitaria ciliaris (Di); test: Test Example 3: herbicidal effects by upland field foliage treatment; assay type: in vivo; set-up: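 grade of growth control; 5 = at least 90%; 4 = 70 to 90%; 3 = 50 to 70%; 2 = 30 to 50%; 1 = 10 to 30%; 0 = under 10%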; details: 100 g active ingredient per 10 ares, evaluated 14th day after treatment
Method in brief: (§3)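 Sowing into sand pots with a 120 cm^2 surface, followed by soil covering and 2 weeks of greenhouse growth, preceded the leaf treatment. Scoring of weed control took place on the 14th day afterwards according to set evaluation criteria.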

[11] = system: barnyardgrass (Ec); test: as above; assay type: in vivo; set-up: scale not given here; details: 100 g active ingredient per 10 ares, evaluated 14th day after treatment
Method in brief: as §3

[12] = system: common lambsquarters (Ch); test: as above; assay type: in vivo; set-up: scale not given here; details: 100 g active ingredient per 10 ares, evaluated 14th day after treatment
Method in brief: as §3

[13] = system: pale smartweed (Po); test: as above; assay type: in vivo; set-up: scale not given here; details: 100 g active ingredient per 10 ares, evaluated 14th day after treatment
Method in brief: as §3

[14] = system: rice flatsedge (Ci); test: as above; assay type: in vivo; set-up: scale not given here; details: 100 g active ingredient per 10 ares, evaluated 14th day after treatment
Method in brief: as §3

[15] = system: slender amaranth (Am); test: as above; assay type: in vivo; set-up: scale not given here; details: 100 g active ingredient per 10 ares, evaluated 14th day after treatment
Method in brief: as §3

[16] = system: cotton (Go); test: Test Example 4: crop plant selectivity by upland field soil treatment (cotton), phytotoxicity; assay type: in vivo; set-up: scale not given here; details: evaluated 21st day after application
Method in brief: (§4)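 Weeds and cotton, sown in sand and topped with soil, received a soil-applied treatment. Evaluation after three weeks in a greenhouse followed a standard rating scale.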

[17] = system: Diaitaria ciliaris (Di); test: Test Example 4: crop plant selectivity by upland field soil treatment (cotton), herbicidal effects; assay type: in vivo; details: evaluated 21st day after application
Description: (§5) (Test on Crop Plant Selectivity by Upland Field Soil Treatment)
In a plastic pot (surface area: 600 cm^2) filled with sand, cotton (Go), Diaitaria ciliaris (Di), green foxtail (Se), pale smartweed (Po), slender amaranth (Am), common lambsquarters (Ch) and China jute (Ab) were sown and covered with soil. […] The plants were then cultured in a green house, and the evaluation of the herbicidal effects and phytotoxicity was conducted on the 21st day after the application in accordance with the standards as identified in Table 47. Symbol—represents “not tested”.

[18] = system: China jute (Ab); test: as above; assay type: in vivo; set-up: scale not given here; details: evaluated 21st day after application
Method in brief: as §4

[19] = system: common lambsquarters (Ch); test: as above; assay type: in vivo; set-up: scale not given here; details: evaluated 21st day after application
Method in brief: as §4

[20] = system: green foxtail (Se); test: as above; assay type: in vivo; set-up: scale not given here; details: evaluated 21st day after application
Method in brief: as §4

[21] = system: pale smartweed (Po); test: as above; assay type: in vivo; set-up: scale not given here; details: evaluated 21st day after application
Method in brief: as §4

[22] = system: slender amaranth (Am); test: as above; assay type: in vivo; set-up: scale not given here; details: evaluated 21st day after application
Method in brief: as §4

[23] = system: wheat (Tr); test: Test Example 5: crop plant selectivity by upland field soil treatment (wheat), phytotoxicity; assay type: in vivo; set-up: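 grade of crop injury; 5 = at least 90%; 4 = 70 to 90%; 3 = 50 to 70%; 2 = 30 to 50%; 1 = 10 to 30%; 0 = under 10%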; details: 21st day after application
Method in brief: (§6)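 Pots of sand sown with wheat and weeds (incl. Digitaria ciliaris, green foxtail, slender amaranth), seeds covered with soil, soil-applied treatment. Grown in greenhouse; herbicidal effect and crop phytotoxicity scored visually on day 21 after application against a rating scale.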

[24] = system: Diaitaria ciliaris (Di); test: Test Example 5: crop plant selectivity by upland field soil treatment (wheat), herbicidal effects; assay type: in vivo; details: 21st day after application
Description: as §5
In a plastic pot (surface area: 600 cm^2) filled with sand, wheat (Tr), Diaitaria ciliaris (Di), green foxtail (Se), pale smartweed (Po), slender amaranth (Am), common lambsquarters (Ch) and China jute (Ab) were sown and covered with soil. […] The plants were then cultured in a green house, and the evaluation of the herbicidal effects and phytotoxicity was conducted on the 21st day after the application in accordance with the standards as identified in Table 47. Symbol—represents “not tested”.

[25] = system: China jute (Ab); test: as above; assay type: in vivo; set-up: scale not given here; details: 21st day after application
Method in brief: as §6

[26] = system: common lambsquarters (Ch); test: as above; assay type: in vivo; set-up: scale not given here; details: 21st day after application
Method in brief: as §6

[27] = system: green foxtail (Se); test: as above; assay type: in vivo; set-up: scale not given here; details: 21st day after application
Method in brief: as §6

[28] = system: pale smartweed (Po); test: as above; assay type: in vivo; set-up: scale not given here; details: 21st day after application
Method in brief: as §6

[29] = system: slender amaranth (Am); test: as above; assay type: in vivo; set-up: scale not given here; details: 21st day after application
Method in brief: as §6

Cc1cc2c(-c3cn(C)c(C(F)(F)F)cc3=O)c(F)cc(Cl)c2o1 [Compound No. 9-1, 5-(7-chloro-5-fluoro-2-methylbenzofuran-4-yl)-1-methyl-2-trifluoromethyl-4(1H)-pyridone]
5: Herbicidal effects Ec [1] | Herbicidal effects Sc [2] | Herbicidal effects Mo [3] | Herbicidal effects Di [4] | Herbicidal effects Ec [5] | Herbicidal effects Ch [6] | Herbicidal effects Po [7] | Herbicidal effects Ci [8] | Herbicidal effects Am [9] | Herbicidal effects Di [10] | Herbicidal effects Ec [11] | Herbicidal effects Ch [12] | Herbicidal effects Po [13] | Herbicidal effects Ci [14] | Herbicidal effects Am [15] | Herbicidal effects Di ([17]; dose 1.6 g ai/10 a) | Herbicidal effects Di ([17]; dose 6.3 g ai/10 a) | Herbicidal effects Ab ([18]; dose 1.6 g ai/10 a) | Herbicidal effects Ab ([18]; dose 6.3 g ai/10 a) | Herbicidal effects Ch ([19]; dose 1.6 g ai/10 a) | Herbicidal effects Ch ([19]; dose 6.3 g ai/10 a) | Herbicidal effects Se ([20]; dose 1.6 g ai/10 a) | Herbicidal effects Se ([20]; dose 6.3 g ai/10 a) | Herbicidal effects Po ([21]; dose 6.3 g ai/10 a) | Herbicidal effects Am ([22]; dose 1.6 g ai/10 a) | Herbicidal effects Am ([22]; dose 6.3 g ai/10 a) | Herbicidal effects Di ([24]; dose 1.6 g ai/10a) | Herbicidal effects Di ([24]; dose 6.3 g ai/10a) | Herbicidal effects Ab ([25]; dose 1.6 g ai/10a) | Herbicidal effects Ab ([25]; dose 6.3 g ai/10a) | Herbicidal effects Ch ([26]; dose 1.6 g ai/10a) | Herbicidal effects Ch ([26]; dose 6.3 g ai/10a) | Herbicidal effects Se ([27]; dose 1.6 g ai/10a) | Herbicidal effects Se ([27]; dose 6.3 g ai/10a) | Herbicidal effects Po ([28]; dose 1.6 g ai/10a) | Herbicidal effects Am ([29]; dose 1.6 g ai/10a) | Herbicidal effects Am ([29]; dose 6.3 g ai/10a)
0: Phytotoxicity Go ([16]; dose 1.6 g ai/10 a) | Phytotoxicity Go ([16]; dose 6.3 g ai/10 a) | Phytotoxicity Tr ([23]; dose 1.6 g ai/10a)
1: Phytotoxicity Tr ([23]; dose 6.3 g ai/10a)
4: Herbicidal effects Po ([21]; dose 1.6 g ai/10 a) | Herbicidal effects Po ([28]; dose 6.3 g ai/10a)
208 to 211 °C: melting point

Cn1c(C(F)(F)F)ccc(-c2cc3c(cc2F)OCC(=O)N3)c1=O [Compound No. 2-4, 3-(7-fluoro-2,3-dihydro-1,4-benzoxazin-3-on-6-yl)-1-methyl-6-trifluoromethyl-2(1H)-pyridone]
5: Herbicidal effects Ec [1] | Herbicidal effects Sc [2] | Herbicidal effects Mo [3] | Herbicidal effects Di [4] | Herbicidal effects Ec [5] | Herbicidal effects Ch [6] | Herbicidal effects Po [7] | Herbicidal effects Ci [8] | Herbicidal effects Am [9] | Herbicidal effects Di [10] | Herbicidal effects Ec [11] | Herbicidal effects Ch [12] | Herbicidal effects Po [13] | Herbicidal effects Ci [14] | Herbicidal effects Am [15] | Herbicidal effects Di ([24]; dose 1.6 g ai/10a) | Herbicidal effects Se ([27]; dose 1.6 g ai/10a) | Herbicidal effects Po ([28]; dose 1.6 g ai/10a) | Herbicidal effects Am ([29]; dose 1.6 g ai/10a)
0: Phytotoxicity Tr ([23]; dose 1.6 g ai/10a)
4: Herbicidal effects Ch ([26]; dose 1.6 g ai/10a)
3: Herbicidal effects Ab ([25]; dose 1.6 g ai/10a)

From patent US6472348B1, “Pyridone derivatives and herbicides” (Kumiai Chemical Industry Co., Ltd., priority 1996, dated 2002)
